Measured values reported in paper PMC5587909, “Inhibition of the ATP Synthase Eliminates the Intrinsic Resistance of Staphylococcus aureus towards Polymyxins” (mBio, 2017).
≈ marks a conversion by molar mass, not a printed value. Bridge positions count the residues as written; N and C are the ends. Square brackets hold non-standard residues; d marks the D form. Peptide text beside a SMILES is read from it. * marks the point of attachment. X1 = CC[C@H](C)CCCCC(=O)*; Dab = NCC[C@H](N)C(=O)O

Columns and labels:
Format in all cases: cell-based, Staphylococcus aureus
[1] = tested on: S. aureus JE2 graR mutant; conditions: Etest on cation-adjusted Mueller-Hinton agar, 37°C, 22 h
Description: (§1) It has been reported that growth medium composition can affect polymyxin MIC ([23]): therefore, we also tested polymyxin B MICs of the WT and atpA, graR, vraG, and vraF mutants by employing the Etest on cation-adjusted Mueller-Hinton (MH) agar. […] Polymyxin B breakpoints for Pseudomonas aeruginosa are susceptible at a MIC of ≤2 μg/ml, intermediate at a MIC of 4 μg/ml, and resistant at a MIC of ≥8 μg/ml, whereas for Acinetobacter spp., a MIC of ≥4 μg/ml is considered resistant.
(§2) The strains used in this study include S. aureus strain JE2 (plasmid-cured derivative of USA300 LAC) and all derivative strains within the Nebraska Transposon Mutant Library (NTML), consisting of 1,920 unique transposon mutants with inactivation of nonessential genes ([15]). The bursa aurealis transposon used to create the collection contains the resistance cassette ermB, which confers resistance to erythromycin ([15]). Additionally we used S. aureus SA113 and two derivatives, SA113 ΔdltA ([9]) and SA113 ΔmprF ([10]). All bacterial strains were cultured at 37°C in tryptic soy broth (TSB) or on tryptic soy agar (TSA), with antimicrobial agents added as indicated. Two methods have been employed to determine MICs to various antimicrobial agents. (i) A 2-fold broth microdilution assay in TSB (100 µl) with an initial inoculum of approximately 5 × 10^5 cells/ml was employed to determine the MICs of polymyxin B sulfate (Sigma), gallidermin (Santa Cruz Biotechnology), nisin (Sigma), bacitracin (Sigma), and LL-37 (Isca Biochemicals). (ii) An Etest (BioMérieux) performed on TSA plates was employed to determine MICs for polymyxin B, colistin, ciprofloxacin, oxacillin, linezolid, gentamicin, vancomycin, and daptomycin. The MIC was determined upon incubation at 37°C for 22 h. When indicated, the Etest (BioMérieux) was performed on Mueller-Hinton agar plates (cation adjusted for calcium and magnesium).

[2] = tested on: S. aureus JE2 vraF mutant; conditions: Etest on cation-adjusted Mueller-Hinton agar, 37°C, 22 h
Description: as §1, §2

[3] = tested on: S. aureus JE2 atpA mutant; conditions: Etest on cation-adjusted Mueller-Hinton agar, 37°C, 22 h
Description: as §1, §2

S. aureus JE2 (WT) [4] = conditions: Etest on cation-adjusted Mueller-Hinton agar, 37°C, 22 h
Description: as §1, §2

[5] = tested on: S. aureus JE2 vraG mutant; conditions: Etest on cation-adjusted Mueller-Hinton agar, 37°C, 22 h
Description: as §1, §2

[6] = tested on: S. aureus JE2 transposon mutant SAUSA300_1254 (hypothetical protein); conditions: Etest on TSA, 37°C, 22 h
Source text: (§3) Staphylococcus aureus is intrinsically resistant to the clinically approved cationic antimicrobial peptides polymyxin B (PMB) and colistin ([1], [16]). […] The MIC for PMB was subsequently determined using Etests for the identified mutants. Nineteen mutants were confirmed to be at least 2-fold more susceptible than the WT (Table 1). As expected, we identified transposon insertions in graS, graR, vraF, and vraG, corroborating previous work on these determinants in S. aureus in relation to increased PMB susceptibility ([12]).
as §2

[7] = tested on: S. aureus JE2 yajC transposon mutant (SAUSA300_1594); conditions: Etest on TSA, 37°C, 22 h
Source text: as §3, §2

[8] = tested on: S. aureus JE2 cbiO transposon mutant (SAUSA300_2176); conditions: Etest on TSA, 37°C, 22 h
Source text: as §3, §2

[9] = tested on: S. aureus JE2 trkA transposon mutant (SAUSA300_0988); conditions: Etest on TSA, 37°C, 22 h
Source text: as §3, §2

[10] = tested on: S. aureus JE2 vraS transposon mutant (SAUSA300_1866); conditions: Etest on TSA, 37°C, 22 h
Source text: as §3, §2

[11] = tested on: S. aureus JE2 atpG transposon mutant (SAUSA300_2059); conditions: Etest on TSA
Source text: as §3, §2

[12] = tested on: S. aureus JE2 transposon mutant SAUSA300_0918 (diacylglycerol glucosyltransferase); conditions: Etest on TSA, 37°C, 22 h
Source text: as §3, §2

[13] = tested on: S. aureus JE2 atpB transposon mutant (SAUSA300_2064); conditions: Etest on TSA
Source text: as §3, §2

[14] = tested on: S. aureus JE2 transposon mutant SAUSA300_0980 (hypothetical protein); conditions: Etest on TSA, 37°C, 22 h
Source text: as §3, §2

[15] = tested on: S. aureus JE2 atpH transposon mutant (SAUSA300_2061); conditions: Etest on TSA
Source text: as §3, §2

[16] = tested on: S. aureus SA113 ΔmprF mutant; conditions: MIC method not given, 37°C, 22 h
Source text: (§4) Lysinylation of phosphatidylglycerols therefore seems to mediate selective protection against certain cationic antimicrobial peptides.
as §2, with “The MIC was determined upon incubation at 37°C for 22 h. When indicated, the Etest (BioMérieux) was performed on Mueller-Hinton agar plates (cation adjusted for calcium and magnesium).” left out

[17] = tested on: S. aureus SA113 (wild type); conditions: MIC method not given, 37°C, 22 h
Source text: as §4
as §2, with “The MIC was determined upon incubation at 37°C for 22 h. When indicated, the Etest (BioMérieux) was performed on Mueller-Hinton agar plates (cation adjusted for calcium and magnesium).” left out

S. aureus JE2 (WT) [18] = test: Kill curve experiment, polymyxin B with or without oligomycin A; conditions: WT JE2 in TSB; PMB alone at 0.25× MIC of WT; 4 h
Source text: The ATP synthase is a well-described protein complex, and multiple inhibitors have been identified that interfere with its function—e.g., the macrolide oligomycin A ([32]). […] The combinatory efficacy of PMB and oligomycin A is similar to the observed killing efficacy of PMB against the atpA mutant.
FIG 4 Improved killing efficacy of PMB upon inhibition of the ATP synthase. […] The data represent the average from three measurements, with error bars showing 95% confidence intervals.
From overnight cultures of S. aureus JE2 and the derivative atpA mutant, 100 μl was diluted into 900 μl fresh TSB medium in a Falcon tube and grown for 1 h for the cells to reach the early exponential phase. After 1 h, the cultures were diluted into 10 ml fresh TSB medium in 100-ml Erlenmeyer flasks, reaching an initial cell count of approximately 10^6 cells/ml. Oligomycin A (Sigma) was added to flasks as indicated at a concentration of 8 μg/ml. […] CFU were determined on TSA plates before addition of oligomycin A (time zero [T0]), before addition of polymyxin B (time 30 min [T30]), and every hour for the following 4 h.

Q: What does the source list for `CC[C@H](C)CCCCC(=O)N[C@@H](CCN)C(=O)N[C@H](C(=O)N[C@@H](CCN)C(=O)N[C@H]1CCNC(=O)[C@H]([C@@H](C)O)NC(=O)[C@H](CCN)NC(=O)[C@H](CCN)NC(=O)[C@H](CC(C)C)NC(=O)[C@@H](Cc2ccccc2)NC(=O)[C@H](CCN)NC1=O)[C@@H](C)O` [Polymyxin B, polymyxin B] (X1-[Dab]T[Dab][Dab][Dab][dF]L[Dab][Dab]T; lactam 4-C (inferred); N-terminus assumed)?
A: MIC [1]: 1 to 2 µg/mL; MIC [2]: 1.5 to 2 µg/mL; MIC [3]: 2 to 4 µg/mL; MIC (S. aureus JE2 (WT) [4]): 8 to 16 µg/mL; MIC [5]: 1.5 to 2 µg/mL; MIC [6]: 48 µg/mL (≈ 39.9 µM); MIC [7]: 64 µg/mL (≈ 53.2 µM); MIC [8]: 48 µg/mL (≈ 39.9 µM); MIC [9]: 48 µg/mL (≈ 39.9 µM); MIC [10]: 64 µg/mL (≈ 53.2 µM); MIC ([11]; 37°C, 22 h, atpG mutant): 16 µg/mL (≈ 13.3 µM); fold reduction in MIC relative to WT ([11]; atpG mutant vs WT JE2): 8 fold; MIC [12]: 64 µg/mL (≈ 53.2 µM); MIC ([13]; 37°C, 22 h, atpB mutant): 16 µg/mL (≈ 13.3 µM); fold reduction in MIC relative to WT ([13]; atpB mutant vs WT JE2): 8 fold; MIC [14]: 48 µg/mL (≈ 39.9 µM); MIC ([15]; 37°C, 22 h, atpH mutant): 16 µg/mL (≈ 13.3 µM); fold reduction in MIC relative to WT ([15]; atpH mutant vs WT JE2): 8 fold; MIC [16]: 384 µg/mL (≈ 319 µM); MIC [17]: 512 µg/mL (≈ 425 µM); killing efficacy (CFU over time) (S. aureus JE2 (WT) [18]): continued growth
